“Also recorded” adds a separate entry of the source. Like-named read-outs stand apart in the source and are kept apart here.
Tests used:
[1] = Cellular toxicity in LLC/MK2 cells (MTS assay); format: cell-based; conditions: rhesus monkey
Experimental: Cytotoxicity of the compounds was also accessed at the concentration of 10 µM in parallel with the viral inhibition screening. LLC/MK2 cells (1 × 10^4) were seeded in 96-well plate and incubated at 37 °C under 5% CO2 overnight; compounds were added after 24 h, and then incubated for 2 days. DMSO at 1% was used as mock treatment. Cytotoxicity was measured using CellTiter 96® Aqueous One Solution Cell Proliferation Assay (MTS) kit (Promega, Wisconsin-Madison, WI, USA) according to the manufacturer’s instruction and analyzed by EnSight Multimode Plate Reader spectrophotometry at A450nm. (Perkin Elmer, Waltham, MA, USA).

[2] = system: DENV2 NGC; assay: Screening antiviral efficacy: viral inhibition at 10 µM in DENV2-infected LLC/MK2 cells, plaque titration; format: cell-based, DENV2 (New Guinea C strain); conditions: for inhibition at 10 µM: Dengue virus
Experimental: The flavone analogs were preliminary screened for their viral inhibitory activity against DENV2 NGC (accession number NC_001474.2) in a LLC/MK2 (ATCC CCL-7™) cell-based system at the final concentration of 10 μM. […] On the other hand, the acylation of the hydroxy groups on the A-ring yielded mixed results.
LLC/MK2 cells (5 × 10^4) were seeded in 24-well plate and incubate at 37 °C under 5% CO2 overnight. Cells were infected with DENV2 NGC at a multiplicity of infection (M.O.I. of 0.1) and compounds at 10 µM were added and DMSO at 1% was used as control. Cultured plates were incubated for 1 h with gentle rocking every 15 min. Cells were washed with PBS, MEM supplemented with 1% FBS, 100 I.U./mL penicillin, and 100 µg/mL streptomycin, 10 mM HEPES was added in a presence of a compound at 10 µM. Cells were incubated at 37 °C with 5% CO2 for 3 days. Supernatants were collected to determine viral titers by plaque titration assay as previously described. The selected compounds were further analyzed for an effective concentration (EC50).

[3] = system: DENV2; assay: Antiviral efficacy (EC50) against DENV2 in LLC/MK2 cells, plaque titration; format: cell-based, DENV2 (New Guinea C strain); conditions: for EC50: Dengue virus, DENV2, LLC/MK2 cells, three independent experiments, read-out: EC50 (50% effective concentration against DENV2); for fold increase in activity compared with 8-bromobaicalein 5f / fold more active than the original baicalein 5a: EC50 against DENV2
Experimental: LLC/MK2 (ATCC® CCL-7), and C6/36 (ATCC® CRL-1660) cell lines were propagated and maintained as previously described[18],[29],[31]. Effective concentration (EC50) of the compounds against the DENV2 were tested using LLC/MK2 cells[18],[29]. Briefly, cells were seeded overnight and infected with each virus at the multiplicity of infection (M.O.I.) of 0.1 for 1 h. The compound was added during and after infection, and cells were incubated for 72 h. Supernatants were collected for plaque titration. EC50 results were means and standard errors of three independent experiments.

[4] = system: dengue virus; design: method as in PMID 28389141; conditions: mice administered with luteolin; cited from earlier work
[5] = Cellular toxicity in LLC/MK2 cells (MTS assay); format: cell-based; conditions: rhesus monkey; remark: listed apart in the source
[6] = system: dengue and Zika virus; conditions: cited from earlier work
[7] = system: DENV2; design: method as in PMID 23140177, PMID 29057920; conditions: data according to literature (footnote f); read-out: EC50 (50% effective concentration against DENV2); cited from earlier work
[8] = system: DENV2 replication in Vero cells; design: method as in PMID 31441148, PMID 23140177; conditions: cited from earlier work
[9] = 10 μM, DENV2 NGC-infected LLC/MK2 cells, NA = not active, read-out: %Inhibition (%viral inhibition against DENV2)
[10] = 10 μM, read-out: %Viability in LLC/MK2 cell
[11] = DENV2, LLC-MK2, read-out: %Inhibition (%viral inhibition against DENV2)

COc1cc2oc(-c3ccc(N)cc3)cc(=O)c2c(OC)c1OC [5l, 4′-Amino-5,6,7-trimethoxyflavone]
viability at 2 days, 10 µM [1]: 93 ± 2.36% | inhibition at 10 µM [2, 9]: 62%

O=c1cc(-c2ccccc2)oc2c3c(ccc12)OCO3 [3b, 7,8-Dioxoloflavone]
viability at 2 days, 10 µM [1]: 96.6 ± 1.01%

O=c1cc(-c2ccc(Br)cc2)oc2cc(O)c(O)c(O)c12 [5m, 4′-Bromo-5,6,7-trihydroxyflavone]
viability at 2 days, 10 µM [1]: 90 ± 6.61% | EC50 [3]: 520 ± 120 nM | inhibition at 10 µM [2, 9]: 100%

COc1cc2oc(-c3ccc(Br)cc3)cc(=O)c2c(OC)c1OC [5j, 4′-Bromo-5,6,7-trimethoxylflavone]
viability at 2 days, 10 µM [1]: 101 ± 11.1% | inhibition at 10 µM [2, 9]: 70.4%

CCC(=O)Oc1ccc2c(=O)cc(-c3ccccc3)oc2c1 [2c, 7-Propionoxyflavone]
viability at 2 days, 10 µM [1]: 115 ± 1.55% | inhibition at 10 µM [2, 9]: 37.5%

O=c1cc(-c2ccc(O)c(O)c2)oc2cc(O)cc(O)c12 [luteolin]
reduction of the virus load [4]: tenfold reduction

Nc1c(O)cc(O)c2c(=O)cc(-c3ccccc3)oc12 [4f, 8-Amino-5,7-dihydroxyflavone]
viability at 2 days, 10 µM [1]: 93.4 ± 3.29%

CCC(=O)Oc1cc2oc(-c3ccccc3)cc(=O)c2c(OC(=O)CC)c1OC(=O)CC [5d, 5,6,7-Tripropionoxyflavone]
viability at 2 days, 10 µM [1, 10]: 83.8 ± 2.61% | EC50 [3]: 70 ± 15 nM | fold increase in activity compared with 8-bromobaicalein 5f [3]: over tenfold; also recorded: more than tenfold | fold more active than the original baicalein 5a [3]: over 300 fold | inhibition at 10 µM [2, 11]: 90% | CC50 at 2 days ([5]; LLC/MK2 cells, read-out: CC50): > 100 µM

COc1ccc2oc(-c3ccccc3)cc(=O)c2c1 [1b, 6-Methoxyflavone]
viability at 2 days, 10 µM [1]: 95.2 ± 8.12% | inhibition at 10 µM [2, 11]: 77%

COc1cc2oc(-c3ccc([N+](=O)[O-])cc3)cc(=O)c2c(OC)c1OC [5k, 5,6,7-Trimethoxy-4′-nitroflavone]
viability at 2 days, 10 µM [1]: 101 ± 1.97% | inhibition at 10 µM [2, 9]: 70%

COc1cc(O)c2c(=O)cc(-c3ccccc3)oc2c1 [4b, 5-Hydroxy-7-methoxyflavone]
viability at 2 days, 10 µM [1]: 97.5 ± 1% | inhibition at 10 µM [2, 9]: 16.7%

O=c1cc(-c2ccccc2)oc2cc(O)ccc12 [2a, 7-hydroxyflavone]
viability at 2 days, 10 µM [1, 10]: 122 ± 7.21% | inhibition at 10 µM [2, 9]: 37.5%

COc1cc2oc(-c3ccccc3)cc(=O)c2c(O)c1OC [5b, 5-Hydroxy-6,7-dimethoxyflavone]
viability at 2 days, 10 µM [1]: 97.5 ± 2.47% | inhibition at 10 µM [2, 9]: 80%

COc1cc2oc(-c3ccc([N+](=O)[O-])cc3)cc(=O)c2c(O)c1OC [5q, 5-Hydroxy-6,7-dimethoxy-4′-nitroflavone]
viability at 2 days, 10 µM [1]: 84.7 ± 5.07% | melting point: 145 to 150 °C | EC50 [3]: 4520 ± 760 nM | inhibition at 10 µM [2, 9]: 98.2%

CCCCCCCCCCCCOc1c(Br)c(O)c2c(=O)cc(-c3ccccc3)oc2c1Br [IV]
EC50 [6]: 4.17 µM

O=c1cc(-c2ccccc2)oc2cc(O)cc(O)c12 [4a, chrysin]
viability at 2 days, 10 µM [1]: 84.8 ± 2.03% | inhibition at 10 µM [2, 9]: 16.7%

Nc1ccc(-c2cc(=O)c3c(O)c(O)c(O)cc3o2)cc1 [5o, 4′-Amino-5,6,7-trihydroxyflavone]
viability at 2 days, 10 µM [1]: 109 ± 2.53%

O=c1cc(-c2ccccc2)oc2cc(OCc3ccccc3)cc(O)c12 [4c, 7-Benzyloxy-5-hydroxyflavone]
viability at 2 days, 10 µM [1]: 86.1 ± 3.05%

O=c1cc(-c2ccccc2)oc2c([N+](=O)[O-])c(O)cc(O)c12 [4e, 5,7-Dihydroxy-8-nitroflavone]
viability at 2 days, 10 µM [1, 10]: 52.5 ± 2.59% | inhibition at 10 µM [2, 11]: 33.3%

CC(=O)Oc1cc2oc(-c3ccccc3)cc(=O)c2c(OC(C)=O)c1OC(C)=O [5c, 5,6,7-Triacetoxyflavone]
viability at 2 days, 10 µM [1, 10]: 107 ± 7.34% | EC50 [3]: 410 ± 560 nM | inhibition at 10 µM [2, 11]: 100%

COc1ccc2c(=O)cc(-c3ccccc3)oc2c1 [2b, 7-Methoxyflavone]
viability at 2 days, 10 µM [1]: 84.5 ± 3.34% | inhibition at 10 µM [2, 11]: 37.5%

O=c1cc(-c2ccccc2)oc2ccc(O)cc12 [1a, 6-hydroxyflavone]
viability at 2 days, 10 µM [1]: 69.5 ± 14.3% | inhibition at 10 µM [2, 9]: 90%

CCC(=O)Oc1ccc2oc(-c3ccccc3)cc(=O)c2c1 [1c, 6-Propionoxyflavone]
viability at 2 days, 10 µM [1]: 89.18 ± 0.78% | inhibition at 10 µM [2, 9]: 73%

COc1cc2oc(-c3ccccc3)cc(=O)c2c(OC)c1OC [5i, 5,6,7-Trimethoxyflavone]
viability at 2 days, 10 µM [1]: 96.8 ± 11.9% | inhibition at 10 µM [2, 9]: 44.4%

O=c1cc(-c2ccccc2)oc2c(Br)c(O)c(Br)c(O)c12 [4d, 6,8-Dibromo-5,7-dihydroxyflavone]
viability at 2 days, 10 µM [1]: 101.1 ± 0.44% | EC50 [7]: 1470 ± 860 nM | inhibition at 10 µM [2, 11]: 83%

O=c1cc(-c2ccccc2)oc2c(Br)c(O)c(O)c(O)c12 [5f, 8-Bromo-5,6,7-trihydroxyflavone]
viability at 2 days, 10 µM [1]: 73.4 ± 14.8% | EC50 [7]: 880 ± 140 nM | inhibition at 10 µM [2, 11]: 100%

O=c1cc(-c2ccc([N+](=O)[O-])cc2)oc2cc(O)c(O)c(O)c12 [5n, 5,6,7-Trihydroxy-4′-nitroflavone]
viability at 2 days, 10 µM [1]: 78.5 ± 9.87% | EC50 [3]: 4300 ± 560 nM | inhibition at 10 µM [2, 9]: 100%

CCC(=O)Oc1cc2oc(-c3ccccc3)cc(=O)c2c(O)c1OC(=O)CC [5e, 5-Hydroxy-6,7-dipropionoxyflavone]
viability at 2 days, 10 µM [1]: 89.6 ± 5.95% | melting point: 132 to 134 °C | EC50 [3]: 68 ± 40 nM | fold increase in activity compared with 8-bromobaicalein 5f [3]: over tenfold; also recorded: more than tenfold | fold more active than the original baicalein 5a [3]: over 300 fold | inhibition at 10 µM [2, 9]: 91.7% | CC50 at 2 days [5]: > 100 µM

O=c1cc(-c2ccccc2)oc2c(O)c(O)ccc12 [3a, 7,8-dihydroxyflavone]
viability at 2 days, 10 µM [1, 10]: 79.4 ± 3.2% | inhibition at 10 µM [2, 11]: 58.3%

O=c1cc(-c2ccccc2)oc2cc(O)c(O)c(O)c12 [5a, baicalein]
viability at 2 days, 10 µM [1, 10]: 92.9 ± 1.44% | IC50 [8]: 23.9 µM | selectivity index (SI) [8]: 17.8 | EC50 [7]: 23900 nM | inhibition at 10 µM [2, 11]: 75%

COc1cc2oc(-c3ccc([N+](=O)[O-])cc3)cc(=O)c2c(O)c1O [5r, 5,6-Dihydroxy-7-methoxy-4′-nitroflavone]
viability at 2 days, 10 µM [1]: 91.6 ± 0.89% | melting point: 174 to 178 °C | inhibition at 10 µM [2, 9]: 22.2%

COc1cc2oc(-c3ccc(Br)cc3)cc(=O)c2c(O)c1OC [5p, 4′-Bromo-5-hydroxy-6,7-dimethoxyflavone]
viability at 2 days, 10 µM [1]: 96.8 ± 5.28% | inhibition at 10 µM [2, 9]: 64.8%

CC(=O)Oc1c(OC(C)=O)c(OC(C)=O)c2c(=O)cc(-c3ccccc3)oc2c1Br [5g, 5,6,7-Triacetoxy-8-bromoflavone]
viability at 2 days, 10 µM [1]: 50.9 ± 3.22% | EC50 [3]: 260 ± 140 nM | inhibition at 10 µM [2, 9]: 100%

CCC(=O)Oc1c(OC(=O)CC)c(OC(=O)CC)c2c(=O)cc(-c3ccccc3)oc2c1Br [5h, 8-Bromo-5,6,7-tripropionoxyflavone]
viability at 2 days, 10 µM [1]: 84.5 ± 6.56% | melting point: 113 to 115 °C | %Inhibition (%viral inhibition against DENV2) ([2]; 10 μM, DENV2 NGC-infected LLC/MK2 cells, NA = not active): inactive
